Laboratory results: PMC6010047, “Design, synthesis and biological evaluation of novel hydroxy-phenyl-1H-benzimidazoles as radical scavengers and UV-protective agents” (Journal of Enzyme Inhibition and Medicinal Chemistry, 2017)
Entries after “also recorded” stand apart in the source; their conditions may differ. Where two headings read alike, the source gives them in different places.

What was measured:
[1] = Ferric reducing antioxidant of potency (FRAP) assay; format: biochemical; conditions: Trolox equivalents; mean ± SE of three experiments
Description: The ferric reducing ability of each standard solution was measured according to a modified protocol described by Guihua et al.[26]. The reagent for analysis was freshly prepared by mixing the following solutions in the reported ratio 10/1/1 (v:v:v) (i) 0.1 M acetate buffer pH 3.6, (ii) TPTZ (2,4,6-Tri(2-pyridyl)-s-triazine) 10 mmol/L in 40 mmol/HCl, (iii) ferric chloride 20 mmol/L. To a 1.9 mL of reagent were added 0.1 mL of sample proper diluted or solvent when blank was performed. Readings at fixed wavelength of the absorption maximum (593 nm) were done after 30 min, using a UV-VIS spectrophotometer; it was evaluated the absorbance increase of sample solution against the absorbance of blank reaction as parameter to calculate the antioxidant activity. The antioxidant activity is given as Trolox activity since this standard was used to perform the calibration curves.

[2] = PCL antioxidant activity of finished formulations; format: biochemical; conditions: 3% (w/w) compound in O/W formulation
Description: (§1) PCL assay, based on the methodology of Popov and Lewin[23], was used to measure the antioxidant activity of synthesized compounds with a Photochem® apparatus (Analytik Jena, Leipzig, Germany) against superoxide anion radicals generated from luminol, a photosensitizer, when exposed to UV light (Double Bore® phosphor lamp, output 351 nm, 3 mWatt/cm^2). The antioxidant activity was measured using ACL (Antioxidant Capacity of Liposoluble substance) kit provided by the manufacturer designed to measure the antioxidant activity of lipophilic compounds[24]. […] The areas under the curves were calculated using the PCLsoft control and analysis software. […] This inhibition was used as a parameter for quantification and related to the decrease in the integral of PCL intensities caused by varying concentrations of Trolox. The observed inhibition of the signal was plotted against the concentration of Trolox added to the assay medium. The concentration of the added tested compounds was such that the generated luminescence during the 180-s sampling interval fell within the limits of the standard curve. The antioxidant assay was carried out in triplicate for each sample, and 20 μL of the diluted compound in HPLC-grade methanol (ACL) was sufficient to correspond to the standard curve.
It was decided to use a standard formulation oil in water (O/W).
In particular, molecules with phenolic hydroxyl in the ortho position on the phenyl ring (4, 5, 9, 10 and 13) had better and higher UVA/UVB ratio and critical wavelength, although they have the SPF value less than lead compound. Formulation containing products 2 and 14, which have a phenolic hydroxyl at the para position on the phenyl ring, have shown good values in terms of SPF, greater UVA protection factor, critical wavelength and also higher UVA/UVB ratio than PBSA, but yet lower than the molecules containing hydroxyl on the phenyl ring in ortho. […] Compound 8 has lower SPF than 3, but higher than PBSA; in comparison with 3, molecules 8 and 12 presented higher UVA/UVB ratio and critical wavelength. Regarding compounds with three hydroxyls on phenyl ring, they have good UVA filtering parameters, their critical wavelengths are the highest and SPF is higher than PBSA for molecule 6, while SPF of 15 is slightly lower and decreases further in molecule 11. Thus, it can be observed that parameters are mainly influenced by the number and position of the hydroxyl groups on the phenyl ring rather than the substituent in the 5-position of benzimidazole. Concomitantly, all formulations were analyzed to assess whether the antioxidant power was maintained. […] In Table 4, the antioxidant activity, measured by PCL method, of finished formulations is reported; as it can be seen results were in agreement with that obtained testing the pure compounds. […] Formulations containing compounds 3, 8 and 12 presented highest antioxidant capabilities; these are followed, but with important decrease in antioxidant capacity, by formulations with compounds 6, […] and 15 that have three hydroxyl moieties on phenyl ring.

[3] = 1,1-Diphenyl-2-picryl-hydrazyl radical (DPPH) assay; format: biochemical; conditions: Trolox equivalents; mean ± SE of three experiments
Description: To 1.5 mL DPPH methanolic solution (0.5 mM) was added 0.750 mL of sample solution proper diluted. Samples absorbance measurements were evaluated with a UV-VIS spectrophotometer (Thermo Spectronic Helios γ, Cambridge, UK) at fixed wavelength of 517 nm. Blank sample was prepared adding methanol to DPPH solution and Trolox was used as standard reference to achieve a calibration curve. The radical-scavenging activity is expressed as inhibition ratio of initial concentration of DPPH radical and is calculated according to the formula: Inhibition percentage (Ip) = [(AB-As)/AB]·100; where AB and As are, respectively, the absorbance values of blank reaction and of the tested sample[25].

[4] = Photochemiluminescence (PCL) method, ACL kit; format: biochemical; conditions: pure compound; Trolox equivalents; mean ± SE of three experiments
Description: as §1

[5] = Cytotoxicity, MTT test, 72 h; conditions: human, NCTC-2544 keratinocytes (immortalized, nontumorigenic)
Description: An immortalized, nontumorigenic cell line of human keratinocytes (NCTC-2544) was grown in a DMEM medium (Sigma-Aldrich Milan, Italy), supplemented with 115 units/mL of penicillin G, 115 μg/mL streptomycin, and 10% fetal calf serum (Invitrogen, Milan, Italy). Individual wells of a 96-well tissue culture microtiter plates (Falcon, Becton–Dickinson) were inoculated with 100 μL of complete medium containing 5 × 10^3 NCTC-2544. The plates were incubated at 37 °C in a humidified (5% CO2) incubator for 18 h prior to the experiments.
After medium removal, 100 μL of the drug solution, dissolved in DMSO and diluted in DMEM medium, was added to each well, incubated at 37 °C for 72 h. Final DMSO concentration never exceeded 0.5%. Cell viability was assayed by the MTT (3–(4,5-dimethylthiazol-2-yl)-2,5 diphenyl tetrazolium bromide) test as previously described by Mosmann[27].
The tests were conducted using a specific cell line of human keratinocytes (NCTC-2544). To assess cell viability, in the presence of the study compounds, before and after the irradiation, the MTT assay was performed[27]. The cytotoxicity was checked after 72 h from the incubation of the keratinocytes with compounds; moreover, the same experiments were performed in the presence of the parent PBSA.

[6] = tested on: NCTC-2544 cells; assay: Phototoxicity / cellular photoprotection, UVA or UVB irradiation, MTT test; conditions: for viability at 20 µM / viability at 50 µM: Homo sapiens, NCTC-2544, light or radiation study, 48 h; for phototoxic effect (cell survival vs irradiated control): NCTC-2544, UVA/UVB irradiation; for cell survival in relation to the irradiated control: after UVB irradiation 1 J/cm^2
[7] = read-out: % Cell survival UVA 20 J/cm^2
[8] = read-out: % Cell survival UVB 0.5 J/cm^2
[9] = read-out: % Cell survival UVB 1 J/cm^2

## O=S(=O)(O)c1ccc2[nH]c(-c3ccc(O)c(O)c3O)nc2c1 [Compound 6, 2-(2,3,4-Trihydroxy-phenyl)-1H-benzimidazole-5-sulfonic acid]
[1]
  FRAP: 2713.3 ± 45.17 μmolTrolox/mmol
[2]
  PCL of finished formulation: 101.98 ± 1.08 μmol Trolox/g formulation
[3]
  DPPH: 1362.12 ± 133.96 μmolTrolox/mmol
[4]
  PCL: 1924.35 ± 101.82 μmolTrolox/mmol
[5]
  IC50 at 72 h: 23.1 ± 2.9 µM
[6]; [7]
  viability at 20 µM: 18.4 ± 2.3%
[6]; [8]
  viability at 20 µM: 59.3 ± 3.4%
[6]; [9]
  viability at 20 µM: 29.7 ± 2.1%
[6]
  phototoxic effect (cell survival vs irradiated control): phototoxic effect

## Oc1ccc(-c2nc3ccccc3[nH]2)cc1O [Compound 8, 2-(3,4-Dihydroxy-phenyl)-1H-benzimidazole]
[1]
  FRAP: 2663.21 ± 32.53 μmolTrolox/mmol
[2]
  PCL of finished formulation: 2972.107 ± 145.63 μmol Trolox/g formulation
[3]
  DPPH: 1974.58 ± 16.89 μmolTrolox/mmol
[4]
  PCL: 19190.6 ± 443.18 μmolTrolox/mmol
[5]
  IC50 at 72 h: > 50 µM
[6]; [7]
  viability at 50 µM: 62.9 ± 4.3%
[6]; [8]
  viability at 50 µM: 72.8 ± 1%
[6]; [9]
  viability at 50 µM: 43.9 ± 3.4%

## Oc1ccc(-c2nc3ccccc3[nH]2)c(O)c1O [Compound 11, 2-(2,3,4-Trihydroxy-phenyl)-1H-benzimidazole]
[1]
  FRAP: 2723.19 ± 35.74 μmolTrolox/mmol
[2]
  PCL of finished formulation: 153.35 ± 8.14 μmol Trolox/g formulation
[3]
  DPPH: 1811.02 ± 61.7 μmolTrolox/mmol
[4]
  PCL: 1614.675 ± 19.95 μmolTrolox/mmol
[5]
  IC50 at 72 h: > 50 µM
[6]; [7]
  viability at 50 µM: 1.2 ± 0.2%
[6]; [8]
  viability at 50 µM: 45.6 ± 2.6%
[6]; [9]
  viability at 50 µM: 27 ± 2.4%
[6]
  phototoxic effect (cell survival vs irradiated control): phototoxic effect

## O=C(O)c1ccc2[nH]c(-c3ccc(O)c(O)c3)nc2c1 [Compound 12, 2-(3,4-Dihydroxy-phenyl)-1H-benzimidazole-5-carboxylic acid]
[1]
  FRAP: 2433.28 ± 21.74 μmolTrolox/mmol
[2]
  PCL of finished formulation: 1373.39 ± 19.43 μmol Trolox/g formulation
[3]
  DPPH: 1771.82 ± 84.75 μmolTrolox/mmol
[4]
  PCL: 13174.31 ± 240.68 μmolTrolox/mmol
[5]
  IC50 at 72 h: > 50 µM
[6]; [7]
  viability at 50 µM: 74.3 ± 2%
[6]; [8]
  viability at 50 µM: 76.3 ± 3.6%
[6]; [9]
  viability at 50 µM: 64.5 ± 3.5%
[6]
  cell survival in relation to the irradiated control: doubled

## O=C(O)c1ccc2[nH]c(-c3ccc(O)cc3O)nc2c1 [Compound 13, 2-(2,4-Dihydroxy-phenyl)-1H-benzimidazole-5-carboxylic acid]
[1]
  FRAP: 31.63 ± 1.96 μmolTrolox/mmol
[2]
  PCL of finished formulation: 4.97 ± 0.17 μmol Trolox/g formulation
[3]
  DPPH: 32.48 ± 2.38 μmolTrolox/mmol
[4]
  PCL: 160.26 ± 4.09 μmolTrolox/mmol
[5]
  IC50 at 72 h: > 50 µM
[6]; [7]
  viability at 50 µM: 80.7 ± 1.3%
[6]; [8]
  viability at 50 µM: 69 ± 0.2%
[6]; [9]
  viability at 50 µM: 57.5 ± 2.4%
[6]
  cell survival in relation to the irradiated control: doubled

## O=C(O)c1ccc2[nH]c(-c3ccc(O)cc3)nc2c1 [Compound 14, 2-(4-Hydroxy-phenyl)-1H-benzimidazole-5-carboxylic acid]
[1]
  FRAP: 2.62 ± 0.06 μmolTrolox/mmol
[2]
  PCL of finished formulation: 0.16 ± 0.02 μmol Trolox/g formulation
[3]
  DPPH: 1.185 ± 0.02 μmolTrolox/mmol
[4]
  PCL: 6.98 ± 0.27 μmolTrolox/mmol
[5]
  IC50 at 72 h: > 50 µM
[6]; [7]
  viability at 50 µM: 76.7 ± 3.4%
[6]; [8]
  viability at 50 µM: 74.2 ± 3.4%
[6]; [9]
  viability at 50 µM: 58.4 ± 2.5%
[6]
  cell survival in relation to the irradiated control: doubled

## O=S(=O)(O)c1ccc2[nH]c(-c3ccccc3)nc2c1 [PBSA, 2-phenyl-1H-benzimidazole-5-sulfonic acid, reference compound]
[2]
  PCL of finished formulation: <LOQ^b
[3]
  DPPH: devoided of any activity; also recorded: < LOQ^a
[4]
  PCL: devoided of any activity; also recorded: < LOQ^a
[5]
  IC50 at 72 h: > 50 µM
[6]; [7]
  viability at 50 µM: 74.5 ± 1.4%
[6]; [8]
  viability at 50 µM: 75.2 ± 4.5%
[6]; [9]
  viability at 50 µM: 64.2 ± 3.1%
[6]
  cell survival in relation to the irradiated control: doubled
